ChEMBL document CHEMBL2057188, “Hybridizing ability and nuclease resistance profile of backbone modified cationic phosphorothioate oligonucleotides” (Bioorg Med Chem, 2012)

What was measured:
Format in all cases: nucleic-acid assay
Nucleic Acid [1] = test: (§1) DNA hybridizing activity at single stranded DNA assessed as thermal stability of duplexes formed between compound and complimentary ssDNA by measuring melting temperature at 4 uM in presence of 10 mM pH 7.2 sodium phosphate buffer containing 100 mM NaCl by UV based melting experiment
Nucleic Acid [2] = test: as §1, with “measuring change in” for “measuring”, “experiment relative to untreated control” for “experiment”
Nucleic Acid [3] = test: (§2) DNA hybridizing activity at single stranded RNA assessed as thermal stability of duplexes formed between compound and complimentary ssRNA by measuring melting temperature at 4 uM in presence of 10 mM pH 7.2 sodium phosphate buffer containing 100 mM NaCl by UV based melting experiment
Nucleic Acid [4] = test: as §2, with “measuring change in” for “measuring”, “experiment relative to untreated control” for “experiment”
Nucleic Acid [5] = test: (§3) DNA hybridizing activity at 22 bp double stranded DNA assessed as thermal stability of duplexes formed between compound and complimentary dsDNA by measuring melting temperature at 1.5 uM in presence of 7 mM pH 5.5 sodium phosphate buffer containing 140 mM K, 10 mM MgCl2 by UV based melting experiment
Nucleic Acid [6] = test: as §3, with “measuring change in” for “measuring”

Structure (SMILES)	Tm (Nucleic Acid [1])	ΔTm (Nucleic Acid [2])	Tm (Nucleic Acid [3])	ΔTm (Nucleic Acid [4])	Tm (Nucleic Acid [5])	ΔTm (Nucleic Acid [6])
Cc1cn([C@H]2C[C@H](OP(=O)(O)OC[C@H]3O[C@@H](n4cc(C)c(=O)[nH]c4=O)C[C@@H]3OP(=O)(O)OC[C@H]3O[C@@H](n4cc(C)c(=O)[nH]c4=O)C[C@@H]3O[P@@](=O)(OC[C@H]3O[C@@H](n4cc(C)c(=O)[nH]c4=O)C[C@@H]3OP(=O)(O)OC[C@H]3O[C@@H](n4cc(C)c(=O)[nH]c4=O)C[C@@H]3OP(=O)(O)OC[C@H]3O[C@@H](n4cc(C)c(=O)[nH]c4=O)C[C@@H]3OP(=O)(O)OC[C@H]3O[C@@H](n4ccc(N)nc4=O)C[C@@H]3OP(=O)(O)OC[C@H]3O[C@@H](n4ccc(N)nc4=O)C[C@@H]3OP(=O)(O)OC[C@H]3O[C@@H](n4ccc(N)nc4=O)C[C@@H]3OP(=O)(O)O)SCCN)[C@@H](COP(=O)(O)O[C@H]3C[C@H](n4ccc(N)nc4=O)O[C@@H]3COP(=O)(O)O[C@H]3C[C@H](n4ccc(N)nc4=O)O[C@@H]3COP(=O)(O)O[C@H]3C[C@H](n4ccc(N)nc4=O)O[C@@H]3CO)O2)c(=O)[nH]c1=O	45 °C	3 °C	45 °C	-1 °C	29 °C	4 °C
Cc1cn([C@H]2C[C@H](OP(=O)(O)OC[C@H]3O[C@@H](n4cc(C)c(=O)[nH]c4=O)C[C@@H]3OP(=O)(O)OC[C@H]3O[C@@H](n4cc(C)c(=O)[nH]c4=O)C[C@@H]3O[P@@](=O)(OC[C@H]3O[C@@H](n4cc(C)c(=O)[nH]c4=O)C[C@@H]3OP(=O)(O)OC[C@H]3O[C@@H](n4cc(C)c(=O)[nH]c4=O)C[C@@H]3OP(=O)(O)OC[C@H]3O[C@@H](n4cc(C)c(=O)[nH]c4=O)C[C@@H]3OP(=O)(O)OC[C@H]3O[C@@H](n4ccc(N)nc4=O)C[C@@H]3OP(=O)(O)OC[C@H]3O[C@@H](n4ccc(N)nc4=O)C[C@@H]3OP(=O)(O)OC[C@H]3O[C@@H](n4ccc(N)nc4=O)C[C@@H]3OP(=O)(O)O)SCCCCN)[C@@H](COP(=O)(O)O[C@H]3C[C@H](n4ccc(N)nc4=O)O[C@@H]3COP(=O)(O)O[C@H]3C[C@H](n4ccc(N)nc4=O)O[C@@H]3COP(=O)(O)O[C@H]3C[C@H](n4ccc(N)nc4=O)O[C@@H]3CO)O2)c(=O)[nH]c1=O	44 °C	2 °C	45 °C	-1 °C	27 °C	2 °C
Cc1cn([C@H]2C[C@H](OP(=O)(O)OC[C@H]3O[C@@H](n4cc(C)c(=O)[nH]c4=O)C[C@@H]3OP(=O)(O)OC[C@H]3O[C@@H](n4cc(C)c(=O)[nH]c4=O)C[C@@H]3O[P@@](=O)(OC[C@H]3O[C@@H](n4cc(C)c(=O)[nH]c4=O)C[C@@H]3OP(=O)(O)OC[C@H]3O[C@@H](n4cc(C)c(=O)[nH]c4=O)C[C@@H]3OP(=O)(O)OC[C@H]3O[C@@H](n4cc(C)c(=O)[nH]c4=O)C[C@@H]3OP(=O)(O)OC[C@H]3O[C@@H](n4ccc(N)nc4=O)C[C@@H]3OP(=O)(O)OC[C@H]3O[C@@H](n4ccc(N)nc4=O)C[C@@H]3OP(=O)(O)OC[C@H]3O[C@@H](n4ccc(N)nc4=O)C[C@@H]3OP(=O)(O)O)SCCN3CCNCC3)[C@@H](COP(=O)(O)O[C@H]3C[C@H](n4ccc(N)nc4=O)O[C@@H]3COP(=O)(O)O[C@H]3C[C@H](n4ccc(N)nc4=O)O[C@@H]3COP(=O)(O)O[C@H]3C[C@H](n4ccc(N)nc4=O)O[C@@H]3CO)O2)c(=O)[nH]c1=O	45 °C	3 °C	46 °C	0 °C	28 °C	3 °C
Cc1cn([C@H]2C[C@H](OP(=O)(O)OC[C@H]3O[C@@H](n4cc(C)c(=O)[nH]c4=O)C[C@@H]3OP(=O)(O)OC[C@H]3O[C@@H](n4cc(C)c(=O)[nH]c4=O)C[C@@H]3O[P@@](=O)(OC[C@H]3O[C@@H](n4cc(C)c(=O)[nH]c4=O)C[C@@H]3OP(=O)(O)OC[C@H]3O[C@@H](n4cc(C)c(=O)[nH]c4=O)C[C@@H]3OP(=O)(O)OC[C@H]3O[C@@H](n4cc(C)c(=O)[nH]c4=O)C[C@@H]3OP(=O)(O)OC[C@H]3O[C@@H](n4ccc(N)nc4=O)C[C@@H]3OP(=O)(O)OC[C@H]3O[C@@H](n4ccc(N)nc4=O)C[C@@H]3OP(=O)(O)OC[C@H]3O[C@@H](n4ccc(N)nc4=O)C[C@@H]3OP(=O)(O)O)SCCNCCN)[C@@H](COP(=O)(O)O[C@H]3C[C@H](n4ccc(N)nc4=O)O[C@@H]3COP(=O)(O)O[C@H]3C[C@H](n4ccc(N)nc4=O)O[C@@H]3COP(=O)(O)O[C@H]3C[C@H](n4ccc(N)nc4=O)O[C@@H]3CO)O2)c(=O)[nH]c1=O	45 °C	3 °C	45 °C	-1 °C	30 °C	5 °C
Cc1cn([C@H]2C[C@H](OP(=O)(O)OC[C@H]3O[C@@H](n4cc(C)c(=O)[nH]c4=O)C[C@@H]3OP(=O)(O)OC[C@H]3O[C@@H](n4cc(C)c(=O)[nH]c4=O)C[C@@H]3O[P@](=O)(OC[C@H]3O[C@@H](n4cc(C)c(=O)[nH]c4=O)C[C@@H]3OP(=O)(O)OC[C@H]3O[C@@H](n4cc(C)c(=O)[nH]c4=O)C[C@@H]3OP(=O)(O)OC[C@H]3O[C@@H](n4cc(C)c(=O)[nH]c4=O)C[C@@H]3OP(=O)(O)OC[C@H]3O[C@@H](n4ccc(N)nc4=O)C[C@@H]3OP(=O)(O)OC[C@H]3O[C@@H](n4ccc(N)nc4=O)C[C@@H]3OP(=O)(O)OC[C@H]3O[C@@H](n4ccc(N)nc4=O)C[C@@H]3OP(=O)(O)O)SCCCN3CCNCC3)[C@@H](COP(=O)(O)O[C@H]3C[C@H](n4ccc(N)nc4=O)O[C@@H]3COP(=O)(O)O[C@H]3C[C@H](n4ccc(N)nc4=O)O[C@@H]3COP(=O)(O)O[C@H]3C[C@H](n4ccc(N)nc4=O)O[C@@H]3CO)O2)c(=O)[nH]c1=O	41 °C	-1 °C	43 °C	-3 °C	23 °C	-3 °C
Cc1cn([C@H]2C[C@H](OP(=O)(O)OC[C@H]3O[C@@H](n4cc(C)c(=O)[nH]c4=O)C[C@@H]3OP(=O)(O)OC[C@H]3O[C@@H](n4cc(C)c(=O)[nH]c4=O)C[C@@H]3O[P@](=O)(OC[C@H]3O[C@@H](n4cc(C)c(=O)[nH]c4=O)C[C@@H]3OP(=O)(O)OC[C@H]3O[C@@H](n4cc(C)c(=O)[nH]c4=O)C[C@@H]3OP(=O)(O)OC[C@H]3O[C@@H](n4cc(C)c(=O)[nH]c4=O)C[C@@H]3OP(=O)(O)OC[C@H]3O[C@@H](n4ccc(N)nc4=O)C[C@@H]3OP(=O)(O)OC[C@H]3O[C@@H](n4ccc(N)nc4=O)C[C@@H]3OP(=O)(O)OC[C@H]3O[C@@H](n4ccc(N)nc4=O)C[C@@H]3OP(=O)(O)O)SCCCN)[C@@H](COP(=O)(O)O[C@H]3C[C@H](n4ccc(N)nc4=O)O[C@@H]3COP(=O)(O)O[C@H]3C[C@H](n4ccc(N)nc4=O)O[C@@H]3COP(=O)(O)O[C@H]3C[C@H](n4ccc(N)nc4=O)O[C@@H]3CO)O2)c(=O)[nH]c1=O	40 °C	-2 °C	43 °C	-3 °C	24 °C	-2 °C
Cc1cn([C@H]2C[C@H](OP(=O)(O)OC[C@H]3O[C@@H](n4cc(C)c(=O)[nH]c4=O)C[C@@H]3OP(=O)(O)OC[C@H]3O[C@@H](n4cc(C)c(=O)[nH]c4=O)C[C@@H]3O[P@@](=O)(OC[C@H]3O[C@@H](n4cc(C)c(=O)[nH]c4=O)C[C@@H]3OP(=O)(O)OC[C@H]3O[C@@H](n4cc(C)c(=O)[nH]c4=O)C[C@@H]3OP(=O)(O)OC[C@H]3O[C@@H](n4cc(C)c(=O)[nH]c4=O)C[C@@H]3OP(=O)(O)OC[C@H]3O[C@@H](n4ccc(N)nc4=O)C[C@@H]3OP(=O)(O)OC[C@H]3O[C@@H](n4ccc(N)nc4=O)C[C@@H]3OP(=O)(O)OC[C@H]3O[C@@H](n4ccc(N)nc4=O)C[C@@H]3OP(=O)(O)O)SCCCCCN)[C@@H](COP(=O)(O)O[C@H]3C[C@H](n4ccc(N)nc4=O)O[C@@H]3COP(=O)(O)O[C@H]3C[C@H](n4ccc(N)nc4=O)O[C@@H]3COP(=O)(O)O[C@H]3C[C@H](n4ccc(N)nc4=O)O[C@@H]3CO)O2)c(=O)[nH]c1=O	44 °C	2 °C	44 °C	-2 °C	27 °C	2 °C
Cc1cn([C@H]2C[C@H](OP(=O)(O)OC[C@H]3O[C@@H](n4cc(C)c(=O)[nH]c4=O)C[C@@H]3OP(=O)(O)OC[C@H]3O[C@@H](n4cc(C)c(=O)[nH]c4=O)C[C@@H]3O[P@](=O)(OC[C@H]3O[C@@H](n4cc(C)c(=O)[nH]c4=O)C[C@@H]3OP(=O)(O)OC[C@H]3O[C@@H](n4cc(C)c(=O)[nH]c4=O)C[C@@H]3OP(=O)(O)OC[C@H]3O[C@@H](n4cc(C)c(=O)[nH]c4=O)C[C@@H]3OP(=O)(O)OC[C@H]3O[C@@H](n4ccc(N)nc4=O)C[C@@H]3OP(=O)(O)OC[C@H]3O[C@@H](n4ccc(N)nc4=O)C[C@@H]3OP(=O)(O)OC[C@H]3O[C@@H](n4ccc(N)nc4=O)C[C@@H]3OP(=O)(O)O)SCCCCN)[C@@H](COP(=O)(O)O[C@H]3C[C@H](n4ccc(N)nc4=O)O[C@@H]3COP(=O)(O)O[C@H]3C[C@H](n4ccc(N)nc4=O)O[C@@H]3COP(=O)(O)O[C@H]3C[C@H](n4ccc(N)nc4=O)O[C@@H]3CO)O2)c(=O)[nH]c1=O	40 °C	-2 °C	43 °C	-3 °C	24 °C	-2 °C
